Measurements from patent US9056111B1, “Selective efflux inhibitors and related pharmaceutical compositions and methods of treatment” (STC.UNM, priority 2011, dated 2015).
Where two headings read alike, the source gives them in different places.

Assays:
[1] = system: ABCG2 over-expressing Ig-MXP3 cells; assay: Chemoreversal assay: potentiation of mitoxantrone (MTX) killing; format: cell-based; details: Ig-MXP3 cells
Ig-MXP3 cells = assay: Direct cytotoxicity (Toxic Dose 50) without chemotherapeutic; format: cell-based
[2] = system: ABCB1 over-expressing Jurkat-DNR cells; assay: Chemoreversal assay: potentiation of daunorubicin (DNR) killing; format: cell-based
Jurkat-DNR cells = assay: Direct cytotoxicity (Toxic Dose 50) without chemotherapeutic
Method: Cells (ABCB1, Jurkat-DNR or ABCG2 Ig-MXP3) are incubated with the test compound (3 order of magnitude concentration range) over a 3-day and 7-day period in the presence of the inhibitor and chemotherapeutic (ABCB1, DNR or ABCG2 MTX), such that a cell concentration of at least 1×10^5 cells/mL is maintained. Cell viability is determined by trypan blue staining and enumeration under light microscopy. […] A chemoreversal index (Chemoreversal 50, CR50) is determined from the viability assessment. Using a similar approach, a direct cytotoxicity index (Toxic Dose 50, TD50) is determined by assessment of cell death of cells grown in media alone.
Cells (ABCB1, Jurkat-DNR or ABCG2 Ig-MXP3) were incubated with the test compound in a 3 order of magnitude concentration range over three and seven day periods in the presence of the inhibitor and chemotherapeutic (ABCB1, 100 nM DNR or ABCG2 30 nM MTX), such that a cell concentration of at least 1×10^5 cells mL^−1 was maintained. Cell viability was determined by trypan blue staining and enumeration under light microscopy. […] A chemoreversal index (Chemoreversal 50, CR50) was determined from the viability assessment. Using a similar approach, a direct cytotoxicity index (Toxic Dose 50, TD50) was determined by assessment of cell death of cells grown in media alone.

ABCB1 / ABCG2 = target: T1, ABCB1 / ABCG2 (Homo sapiens, UniProt Q9UNQ0); assay: JC-1 efflux inhibition dose response, flow cytometry, Ig-MXP3 cells; details: human, probe JC-1 (1 µM), ~Fold G2 Selective (B1/G2), quotient of average ABCB1 IC50 and average ABCG2 IC50, efflux assay
T1 sequence (Q9UNQ0 1-655): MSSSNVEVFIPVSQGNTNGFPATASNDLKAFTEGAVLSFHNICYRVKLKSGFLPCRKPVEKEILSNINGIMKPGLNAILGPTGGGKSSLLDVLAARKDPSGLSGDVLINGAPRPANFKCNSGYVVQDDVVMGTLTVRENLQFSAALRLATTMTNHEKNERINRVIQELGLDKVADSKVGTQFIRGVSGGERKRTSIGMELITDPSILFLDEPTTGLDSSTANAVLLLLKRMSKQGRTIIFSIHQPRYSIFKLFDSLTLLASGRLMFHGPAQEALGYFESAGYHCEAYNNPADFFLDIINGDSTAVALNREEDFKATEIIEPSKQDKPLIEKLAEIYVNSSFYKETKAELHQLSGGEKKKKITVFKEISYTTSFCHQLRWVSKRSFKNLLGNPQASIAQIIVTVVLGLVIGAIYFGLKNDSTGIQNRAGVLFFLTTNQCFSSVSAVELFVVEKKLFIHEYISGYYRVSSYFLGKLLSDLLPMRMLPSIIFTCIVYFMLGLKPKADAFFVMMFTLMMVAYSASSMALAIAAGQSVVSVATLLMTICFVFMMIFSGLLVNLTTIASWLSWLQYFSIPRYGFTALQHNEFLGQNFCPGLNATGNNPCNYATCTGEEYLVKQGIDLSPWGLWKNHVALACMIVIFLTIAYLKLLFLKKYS
Method in brief: (§1)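 Ig-MXP3 (ABCG2) and Jurkat-DNR (ABCB1) cells, run separately, are pre-stained with 1 μM JC-1 and added to compound in PBS; retained dye is read by high-throughput flow cytometry with time-gated analysis.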

ABCG2 = target: T2, ABCG2 (Homo sapiens, UniProt Q9UNQ0); assay: as above
T2 sequence (Q9UNQ0 1-655): T1 sequence (Q9UNQ0 1-655)
Method in brief: as §1

ABCB1 = ABCB1 (Homo sapiens, UniProt P08183); assay: JC-1 efflux inhibition dose response, flow cytometry, Jurkat-DNR cells; details: Jurkat-DNR cells over-expressing ABCB1, averages of two to four replicates
Sequence of ABCB1 (P08183 whole entry): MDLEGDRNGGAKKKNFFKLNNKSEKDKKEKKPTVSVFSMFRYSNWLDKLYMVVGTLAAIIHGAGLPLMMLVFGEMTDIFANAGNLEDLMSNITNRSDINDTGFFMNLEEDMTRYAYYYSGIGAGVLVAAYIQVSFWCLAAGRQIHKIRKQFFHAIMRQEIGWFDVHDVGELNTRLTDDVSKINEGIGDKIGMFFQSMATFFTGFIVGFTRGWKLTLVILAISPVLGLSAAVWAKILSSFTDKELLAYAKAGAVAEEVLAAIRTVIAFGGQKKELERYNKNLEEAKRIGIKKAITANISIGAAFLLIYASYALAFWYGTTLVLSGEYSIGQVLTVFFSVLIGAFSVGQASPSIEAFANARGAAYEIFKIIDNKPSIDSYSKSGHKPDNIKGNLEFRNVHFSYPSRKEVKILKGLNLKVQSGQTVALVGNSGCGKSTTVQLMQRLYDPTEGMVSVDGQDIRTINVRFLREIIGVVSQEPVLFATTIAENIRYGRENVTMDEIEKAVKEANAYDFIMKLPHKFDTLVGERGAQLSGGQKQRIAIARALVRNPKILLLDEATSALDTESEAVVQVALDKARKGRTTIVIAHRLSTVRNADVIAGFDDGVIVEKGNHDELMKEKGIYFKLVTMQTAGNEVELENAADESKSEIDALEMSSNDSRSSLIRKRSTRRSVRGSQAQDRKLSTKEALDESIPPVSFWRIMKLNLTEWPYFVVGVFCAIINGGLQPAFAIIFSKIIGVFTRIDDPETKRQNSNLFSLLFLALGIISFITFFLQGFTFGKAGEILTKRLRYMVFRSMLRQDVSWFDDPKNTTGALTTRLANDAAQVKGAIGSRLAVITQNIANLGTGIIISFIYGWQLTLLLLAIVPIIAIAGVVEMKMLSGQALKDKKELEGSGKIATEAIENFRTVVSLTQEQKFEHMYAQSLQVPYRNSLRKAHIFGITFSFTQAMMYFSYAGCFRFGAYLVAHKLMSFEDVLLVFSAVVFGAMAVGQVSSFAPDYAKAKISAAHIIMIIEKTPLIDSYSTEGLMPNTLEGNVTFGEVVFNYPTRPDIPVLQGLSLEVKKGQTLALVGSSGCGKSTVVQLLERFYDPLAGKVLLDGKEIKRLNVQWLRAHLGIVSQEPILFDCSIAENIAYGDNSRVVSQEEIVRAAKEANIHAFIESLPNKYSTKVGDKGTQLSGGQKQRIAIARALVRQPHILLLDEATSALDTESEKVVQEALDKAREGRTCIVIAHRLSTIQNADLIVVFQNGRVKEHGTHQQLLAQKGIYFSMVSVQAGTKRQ
Method in brief: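 Jurkat-DNR cells pre-stained with 1 μM JC-1 were incubated with compound (final 50 μM to 69 nM, […]) at 1×10^6 cells/mL, rotated 30 min at 25° C. Retained JC-1 read by flow cytometry (488 nm excitation, 530/40 nm emission). Curves fitted to a four-parameter logistic.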

[3] = constant 30 nM MTX, varied inhibitor dose, read-out: CR50 ABCG2
[4] = Ig-MXP3 cells, inhibitor without chemotherapeutic
[5] = constant 100 nM DNR, varied inhibitor dose, read-out: CR50 ABCB1
[6] = Jurkat-DNR cells, inhibitor without chemotherapeutic
[7] = IC50 ABCB1 (efflux inhibition of JC-1 substrate)

Row | SMILES | EC50 [1, 3] [nM] | TD50 ABCG2 (Ig-MXP3 cells; [4]) [µM] | EC50 [2, 5] [nM] | TD50 ABCB1 (Jurkat-DNR cells; [6]) [µM] | selectivity ratio at 30 min (ABCB1 / ABCG2) | IC50 (ABCG2) [nM] | IC50 (ABCB1; [7]) [nM] | ~Fold G2 Selective (B1/G2) (ABCG2; quotient of average ABCB1 IC50 and average ABCG2 IC50, efflux assay) [fold] | EC50 ([1]; values in nM, listed as XR9051, read-out: chemoreversal (CR50) ABCG2) [nM] | EC50 ([1]; values in nM, read-out: chemoreversal (CR50) ABCG2) [nM] | TD50 ABCG2 (Ig-MXP3 cells) [µM] | EC50 ([2]; values in nM, read-out: chemoreversal (CR50) ABCB1) [nM] | TD50 ABCB1 (Jurkat-DNR cells) [µM] | IC50 (ABCG2; read-out: IC50 ABCG2 (efflux inhibition of JC-1 substrate), Ig-MXP3 cells over-expressing ABCG2, averages of two to four replicates) [nM] | IC50 (ABCG2; read-out: IC50 ABCG2 (efflux inhibition of JC-1 substrate), Ig-MXP3 cells over-expressing ABCG2, averages of two to four replicates, listed as XR9051) [nM] | IC50 (ABCB1; read-out: IC50 ABCB1 (efflux inhibition of JC-1 substrate)) [nM] | IC50 (ABCB1; read-out: IC50 ABCB1 (efflux inhibition of JC-1 substrate), listed as XR9051) [nM]
1 | COc1ccc(-c2cc3nc(-c4ccco4)cc(N4CCN(C(=O)c5ccoc5)CC4)n3n2)cc1 [Compound 57] | 760 | >100 | 5770 | >100 | 3.9 | 890 | 3450 | – | – | – | – | – | – | – | – | – | –
2 | COc1cccc(-c2cc(N3CCN(C(=O)c4ccoc4)CC3)n3nc(-c4ccccc4)cc3n2)c1 [Compound 65] | 680 | 67.80 | 180 | 5.77 | 83 | 200 | 16400 | 82.1 | – | – | – | – | – | – | – | – | –
3 | O=C(c1cccnc1)N1CCN(c2cc(-c3ccccc3)nc3cc(-c4cccc(Cl)c4)nn23)CC1 [Compound 20] | 130 | 10.30 | 170 | 4.72 | 2.5 | 230 ± 150 | 570 ± 80 | – | – | – | – | – | – | – | – | – | –
4 | COc1cccc(C(=O)N2CCN(c3cc(-c4ccccc4)nc4cc(-c5cccc(Cl)c5)nn34)CC2)c1 [Compound 15] | 210 | >100 | 350 | >100 | 0.6 | 4450 ± 4680 | 2640 ± 640 | – | – | – | – | – | – | – | – | – | –
5 | COc1cccc(-c2cc3nc(-c4ccco4)cc(N4CCN(C(C)=O)CC4)n3n2)c1 [Compound 88] | 1180 | >100 | 320 | 49.30 | 0.9 | 1900 | 1640 | – | – | – | – | – | – | – | – | – | –
6 | COc1ccc(-c2cc3nc(-c4ccccc4)cc(N4CCN(C(=O)c5ccoc5)CC4)n3n2)cc1 [Compound 36] | 380 | >100 | 230 | 5.54 | 1.2 | 1160 ± 660 | 1440 ± 700 | – | – | – | – | – | – | – | – | – | –
7 | O=C(c1ccoc1)N1CCN(c2cc(-c3ccco3)nc3cc(-c4cccc(Cl)c4)nn23)CC1 [Compound 53] | 1380 | 10.80 | 530 | 8.53 | 2.5 | 2550 | 6420 | – | – | – | – | – | – | – | – | – | –
8 | O=C(Cc1ccccc1)N1CCN(c2cc(-c3ccccc3)nc3cc(-c4cccc(Cl)c4)nn23)CC1 [Compound 24] | 600 | >100 | 510 | 17.80 | 0.8 | 5760 ± 3400 | 4680 ± 2690 | – | – | – | – | – | – | – | – | – | –
9 | O=C(c1ccoc1)N1CCN(c2cc(-c3ccco3)nc3cc(-c4ccco4)nn23)CC1 [Compound 52] | 1210 | >100 | 190 | 1.93 | 0.7 | 2350 | 1700 | – | – | – | – | – | – | – | – | – | –
10 | O=C(c1ccoc1)N1CCN(c2cc(-c3ccncc3)nc3cc(-c4cccc(Cl)c4)nn23)CC1 [Compound 31] | 890 | 57.80 | 600 | 13.50 | 2.5 | 1460 ± 350 | 3680 ± 350 | – | – | – | – | – | – | – | – | – | –
11 | COc1ccccc1-c1cc2nc(-c3ccccc3)cc(N3CCN(C(=O)c4ccoc4)CC3)n2n1 [Compound 34] | 490 | 6.50 | 450 | 4.37 | 4.8 | 450 ± 170 | 2170 ± 760 | – | – | – | – | – | – | – | – | – | –
12 | O=C(c1ccncc1)N1CCN(c2cc(-c3ccccc3)nc3cc(-c4cccc(Cl)c4)nn23)CC1 [Compound 21] | 150 | 28.30 | 250 | 10.90 | 1.1 | 1030 ± 230 | 1160 ± 300 | – | – | – | – | – | – | – | – | – | –
13 | CC(=O)N1CCN(c2cc(-c3ccco3)nc3cc(-c4cccc(Cl)c4)nn23)CC1 [Compound 87] | 580 | >100 | 80 | 17.60 | 1.4 | 560 | 800 | – | – | – | – | – | – | – | – | – | –
14 | O=C(c1ccoc1)N1CCN(c2cc(-c3cccnc3)nc3cc(-c4cccc(Cl)c4)nn23)CC1 [Compound 30] | 20 | 5.77 | 200 | 5.33 | 2.9 | 270 ± 120 | 770 ± 280 | – | – | – | – | – | – | – | – | – | –
15 | COc1cc2c(cc1OC)CN(CCc1ccc(NC(=O)c3cccc(/C=c4\[nH]c(=O)/c(=C/c5ccccc5)n(C)c4=O)c3)cc1)CC2 [Compound 2, reference compound] | – | – | – | – | – | – | – | – | 700 | 650 | 21.40 | 10 | 1.97 | 2270 ± 2050 | 2300 | 610 ± 430 | 600
